Reference: patent US20230233569A1 (Revolution Medicines, Inc., priority 2020, published 2023)
pIC50: −log10 of the molar value. Read-outs that look alike come from different tables or passages of the source.

Columns and labels:
KRAS G13D = KRAS G13D (Homo sapiens, UniProt P01116+P62937, G13D); assay: Disruption of BRAF RBD interaction with Ras (FRET / MOA assay, with Cyclophilin A); format: biochemical
Method in brief: (§1)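 Cyclophilin A-dependent ternary complex assay. K-Ras loaded with nucleotide; BRAF RBD as effector. Cpd top 30 μM final, 3 h at 25 °C. Readout: TR-FRET ratio, IC50.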

KRAS G13C = KRAS G13C (Homo sapiens, UniProt P01116+P62937, G13C); assay: as above; format: biochemical
Method in brief: as §1

NRAS G12C = NRAS G12C (Homo sapiens, UniProt P01111+P62937, G12C); assay: as above; format: biochemical
KRAS G12D = KRAS G12D (Homo sapiens, UniProt P01116+P62937, G12D); assay: as above; format: biochemical
Method in brief: as §1

KRAS G12V = KRAS G12V (Homo sapiens, UniProt P01116+P62937, G12V); assay: as above; format: biochemical
Method in brief: as §1

KRAS G12S = KRAS G12S (Homo sapiens, UniProt P01116+P62937, G12S); assay: as above; format: biochemical
Method in brief: as §1

KRAS G12C = KRAS G12C (Homo sapiens, UniProt P01116+P62937, G12C); assay: as above; format: biochemical
Method in brief: as §1

KRAS WT = KRAS WT (Homo sapiens, UniProt P01116+P62937); assay: as above; format: biochemical
Method in brief: as §1

Capan-1 (K-Ras G12V) = assay: CellTiter-Glo cell viability assay, 5-day treatment; format: cell-based; conditions: Homo sapiens, CAPAN-1, 120 h; for pIC50: 5-day treatment, read-out: Capan-1 Cell Viability assay data (K-Ras G12V, IC50)
Method in brief: (§2)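 Five-day compound treatment of plated cells; luminescent read after ~30 min at RT. Percent-of-DMSO data fit to a four-parameter logistic model.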

NCI-H358 (K-Ras G12C) = assay: as above; format: cell-based; conditions: Homo sapiens, NCI-H358, 120 h; for pIC50: 5-day treatment, read-out: H358 Cell Viability assay data (K-Ras G12C, IC50)
Method in brief: as §2

[1] = KRAS G13D, read-out: KRAS G13D FRET data IC50
[2] = read-out: KRAS G13C FRET data, IC50
[3] = NRAS G12C, read-out: NRAS G12C FRET data IC50
[4] = read-out: KRAS G12D FRET data, IC50
[5] = KRAS G12V, read-out: KRAS G12V FRET data IC50
[6] = read-out: KRAS G12S FRET data, IC50
[7] = read-out: KRAS G12C FRET data, IC50
[8] = KRAS WT, read-out: KRAS WT FRET data IC50
[9] = KRAS G13D FRET data IC50, KRAS G13D
[10] = NRAS G12C FRET data IC50, NRAS G12C
[11] = KRAS G12V FRET data IC50, KRAS G12V
[12] = KRAS WT FRET data IC50, KRAS WT

Chain of KRAS G12V (P01116 1-169 isoform P01116-2 G12V limits assumed): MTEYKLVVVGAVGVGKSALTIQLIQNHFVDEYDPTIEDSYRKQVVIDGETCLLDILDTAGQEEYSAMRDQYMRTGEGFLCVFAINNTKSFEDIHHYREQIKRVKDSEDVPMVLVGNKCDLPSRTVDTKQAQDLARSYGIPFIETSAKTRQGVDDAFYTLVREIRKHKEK
Chain of KRAS G12V (P62937 whole entry): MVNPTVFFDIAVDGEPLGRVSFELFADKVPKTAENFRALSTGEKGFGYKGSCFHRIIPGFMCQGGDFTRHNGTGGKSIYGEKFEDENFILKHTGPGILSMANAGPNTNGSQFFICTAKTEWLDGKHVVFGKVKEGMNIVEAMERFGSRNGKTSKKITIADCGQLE
Chain of KRAS G13C (P01116 1-169 isoform P01116-2 G13C): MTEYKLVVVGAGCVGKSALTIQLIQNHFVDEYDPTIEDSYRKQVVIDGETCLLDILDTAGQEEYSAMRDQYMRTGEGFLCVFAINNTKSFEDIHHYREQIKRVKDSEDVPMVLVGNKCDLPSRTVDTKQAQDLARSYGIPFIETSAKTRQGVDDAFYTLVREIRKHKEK
Chain of KRAS G13C (P62937 whole entry): as the sequence (P62937 whole entry) above
Chain of KRAS G12D (P01116 1-169 isoform P01116-2 G12D limits assumed): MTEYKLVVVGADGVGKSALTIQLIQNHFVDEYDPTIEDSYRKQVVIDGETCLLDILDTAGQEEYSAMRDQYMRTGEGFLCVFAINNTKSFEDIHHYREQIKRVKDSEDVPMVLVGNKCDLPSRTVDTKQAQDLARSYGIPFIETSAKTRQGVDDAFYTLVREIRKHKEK
Chain of KRAS G12D (P62937 whole entry): as the sequence (P62937 whole entry) above
Chain of NRAS G12C (P01111 whole entry G12C): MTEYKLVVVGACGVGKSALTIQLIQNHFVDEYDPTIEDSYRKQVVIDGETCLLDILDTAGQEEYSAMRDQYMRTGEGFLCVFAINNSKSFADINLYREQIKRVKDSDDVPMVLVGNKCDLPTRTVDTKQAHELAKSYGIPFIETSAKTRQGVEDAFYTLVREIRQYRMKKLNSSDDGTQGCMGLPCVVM
Chain of NRAS G12C (P62937 whole entry): as the sequence (P62937 whole entry) above
Chain of KRAS G13D (P01116 1-169 isoform P01116-2 G13D limits assumed): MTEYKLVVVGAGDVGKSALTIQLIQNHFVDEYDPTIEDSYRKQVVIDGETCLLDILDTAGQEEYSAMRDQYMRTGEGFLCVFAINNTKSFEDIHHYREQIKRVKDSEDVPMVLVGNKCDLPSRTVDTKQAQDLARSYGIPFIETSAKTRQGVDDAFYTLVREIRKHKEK
Chain of KRAS G13D (P62937 whole entry): as the sequence (P62937 whole entry) above
Chain of KRAS G12S (P01116 1-169 isoform P01116-2 G12S limits assumed): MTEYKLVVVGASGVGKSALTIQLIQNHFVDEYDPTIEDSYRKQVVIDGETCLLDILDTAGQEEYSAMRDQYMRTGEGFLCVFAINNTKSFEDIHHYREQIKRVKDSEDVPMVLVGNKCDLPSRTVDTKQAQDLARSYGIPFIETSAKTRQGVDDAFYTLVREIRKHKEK
Chain of KRAS G12S (P62937 whole entry): as the sequence (P62937 whole entry) above
Chain of KRAS WT (P01116 1-169 isoform P01116-2 limits assumed): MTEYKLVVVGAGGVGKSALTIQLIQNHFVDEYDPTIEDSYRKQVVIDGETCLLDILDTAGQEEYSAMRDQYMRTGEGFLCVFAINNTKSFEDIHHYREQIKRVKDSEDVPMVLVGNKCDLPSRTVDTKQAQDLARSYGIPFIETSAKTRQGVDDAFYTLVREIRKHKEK
Chain of KRAS WT (P62937 whole entry): as the sequence (P62937 whole entry) above
Chain of KRAS G12C (P01116 1-169 isoform P01116-2 G12C): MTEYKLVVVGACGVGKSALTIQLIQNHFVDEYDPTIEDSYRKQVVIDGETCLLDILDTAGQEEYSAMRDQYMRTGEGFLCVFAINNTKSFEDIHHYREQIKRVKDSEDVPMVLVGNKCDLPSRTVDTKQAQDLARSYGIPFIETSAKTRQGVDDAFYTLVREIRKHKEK
Chain of KRAS G12C (P62937 whole entry): as the sequence (P62937 whole entry) above

| Compound | pIC50 (KRAS G13D; [1]) | pIC50 (KRAS G13C; [2]) | pIC50 (NRAS G12C; [3]) | pIC50 (KRAS G12D; [4]) | pIC50 (KRAS G12V; [5]) | pIC50 (KRAS G12S; [6]) | pIC50 (KRAS G12C; [7]) | pIC50 (KRAS WT; [8]) | pIC50 (Capan-1 (K-Ras G12V)) | pIC50 (NCI-H358 (K-Ras G12C)) | pIC50 (KRAS G13D; [9]) | pIC50 (KRAS G13C; KRAS G13C FRET data, IC50) | pIC50 (NRAS G12C; [10]) | pIC50 (KRAS G12D; KRAS G12D FRET data, IC50) | pIC50 (KRAS G12V; [11]) | pIC50 (KRAS G12S; KRAS G12S FRET data, IC50) | pIC50 (KRAS G12C; KRAS G12C FRET data, IC50) | pIC50 (KRAS WT; [12]) | IC50 (Capan-1 (K-Ras G12V); read-out: Capan-1 Cell Viability assay data (K-Ras G12V, IC50, uM)) | IC50 (NCI-H358 (K-Ras G12C); read-out: H358 Cell Viability assay data (K-Ras G12C, IC50, uM), 5-day treatment) |
| --- | --- | --- | --- | --- | --- | --- | --- | --- | --- | --- | --- | --- | --- | --- | --- | --- | --- | --- | --- | --- |
| CCn1c(-c2cnccc2COC)c2c3cc(ccc31)-c1cc(O)cc(c1)C[C@H](NC(=O)[C@H](C(C)C)N(C)C(=O)[C@H]1CCN(C(=O)C(C)C)C1)C(=O)N1CCC[C@H](N1)C(=O)OCC(C)(C)C2 [Example A29] | 5.00 to 6.00 | 5.00 to 6.00 | 6.00 to 7.00 | < 5.00 | 6.00 to 7.00 | 6.00 to 7.00 | 6.00 to 7.00 | 5.00 to 6.00 | 5.00 to 6.00 | 6.00 to 7.00 | – | – | – | – | – | – | – | – | – | – |
| CCn1c(-c2cnccc2COC)c2c3cc(ccc31)-c1cc(O)cc(c1)C[C@H](NC(=O)[C@H](C(C)C)N(C)C(=O)N1CC(OC)C1)C(=O)N1CCC[C@H](N1)C(=O)OCC(C)(C)C2 [Example A30] | 5.00 to 6.00 | 6.00 to 7.00 | 6.00 to 7.00 | 5.00 to 6.00 | 6.00 to 7.00 | 6.00 to 7.00 | 6.00 to 7.00 | 6.00 to 7.00 | 6.00 to 7.00 | 6.00 to 7.00 | – | – | – | – | – | – | – | – | – | – |
| CCn1c(-c2cnccc2COC)c2c3cc(ccc31)-c1cc(O)cc(c1)C[C@H](NC(=O)[C@H](C(C)C)N(C)C(=O)CO)C(=O)N1CCC[C@H](N1)C(=O)OCC(C)(C)C2 [Example A43, (2S)—N-[(8S,14S)-22-ethyl-4-hydroxy-21-[4-(methoxymethyl)pyridin-3-yl]-18,18-dimethyl-9,15-dioxo-16-oxa-10,22,28-triazapentacyclo[18.5.2.1^2,6.1^10,14.0^23,27]nonacosa-1(26),2,4,6(29),20,23(27),24-heptaen-8-yl]-2-(2-hydroxy-N-methylacetamido)-3-methylbutanamide] | – | – | – | – | – | – | – | – | 5.00 to 6.00 | 5.00 to 6.00 | 6.00 to 7.00 | 6.00 to 7.00 | 6.00 to 7.00 | 5.00 to 6.00 | 6.00 to 7.00 | 6.00 to 7.00 | 6.00 to 7.00 | 6.00 to 7.00 | – | – |
| CCn1c(-c2cnccc2COC)c2c3cc(ccc31)-c1cc(O)cc(c1)C[C@H](NC(=O)[C@H](C(C)C)N(C)C(=O)[C@@H]1NC[C@@H]3C[C@@H]31)C(=O)N1CCC[C@H](N1)C(=O)OCC(C)(C)C2 [Example A78] | – | – | – | – | – | – | – | – | – | – | 6.00 to 7.00 | 7.00 to 8.00 | 6.00 to 7.00 | 6.00 to 7.00 | 6.00 to 7.00 | 6.00 to 7.00 | 6.00 to 7.00 | 6.00 to 7.00 | 1 to 10 µM | 0.1 to 1 µM |
| CCn1c(-c2cnccc2COC)c2c3cc(ccc31)-c1cc(O)cc(c1)C[C@H](NC(=O)[C@H](C(C)C)N(C)C(=O)C1CCN(C)CC1)C(=O)N1CCC[C@H](N1)C(=O)OCC(C)(C)C2 [Example A84] | – | – | – | – | – | – | – | – | < 5.00 | < 5.00 | 6.00 to 7.00 | 6.00 to 7.00 | 5.00 to 6.00 | 5.00 to 6.00 | 5.00 to 6.00 | 6.00 to 7.00 | 6.00 to 7.00 | 6.00 to 7.00 | – | – |
| CCn1c(-c2cnccc2COC)c2c3cc(ccc31)-c1cc(O)cc(c1)C[C@H](NC(=O)[C@H](C(C)C)N(C)C(=O)[C@H]1CCCO1)C(=O)N1CCC[C@H](N1)C(=O)OCC(C)(C)C2 [Example A90] | – | – | – | – | – | – | – | – | 6.00 to 7.00 | 6.00 to 7.00 | 6.00 to 7.00 | 6.00 to 7.00 | 6.00 to 7.00 | 5.00 to 6.00 | 6.00 to 7.00 | 6.00 to 7.00 | 6.00 to 7.00 | 6.00 to 7.00 | – | – |
| CCn1c(-c2cnccc2COC)c2c3cc(ccc31)-c1cc(O)cc(c1)C[C@H](NC(=O)[C@H](C(C)C)N(C)C(=O)[C@@H]1CCCO1)C(=O)N1CCC[C@H](N1)C(=O)OCC(C)(C)C2 [Example A91] | 5.00 to 6.00 | 6.00 to 7.00 | 6.00 to 7.00 | 5.00 to 6.00 | 6.00 to 7.00 | 6.00 to 7.00 | 6.00 to 7.00 | 6.00 to 7.00 | 6.00 to 7.00 | 6.00 to 7.00 | – | – | – | – | – | – | – | – | – | – |
| CCn1c(-c2cnccc2COC)c2c3cc(ccc31)-c1cc(O)cc(c1)C[C@H](NC(=O)[C@H](C(C)C)N(C)C(=O)[C@@H]1CCOC1)C(=O)N1CCC[C@H](N1)C(=O)OCC(C)(C)C2 [Example A94] | 6.00 to 7.00 | 6.00 to 7.00 | 6.00 to 7.00 | 5.00 to 6.00 | 6.00 to 7.00 | 6.00 to 7.00 | 6.00 to 7.00 | 6.00 to 7.00 | 6.00 to 7.00 | 6.00 to 7.00 | – | – | – | – | – | – | – | – | – | – |
| CCn1c(-c2cccnc2[C@H](C)OC)c2c3cc(ccc31)-c1cc(O)cc(c1)C[C@H](NC(=O)[C@H](C(C)C)N(C)C(=O)[C@H]1CCN(C(=O)CN(C)C)C1)C(=O)N1CCC[C@H](N1)C(=O)OCC(C)(C)C2 [Example A95] | 7.00 to 8.00 | 7.00 to 8.00 | 7.00 to 8.00 | 7.00 to 8.00 | 7.00 to 8.00 | 7.00 to 8.00 | 7.00 to 8.00 | 7.00 to 8.00 | 6.00 to 7.00 | 6.00 to 7.00 | – | – | – | – | – | – | – | – | – | – |
| CCn1c(-c2cccnc2[C@H](C)OC)c2c3cc(ccc31)-c1cc(O)cc(c1)C[C@H](NC(=O)[C@H](C(C)C)N(C)C(=O)[C@H]1CCN(C)C1)C(=O)N1CCC[C@H](N1)C(=O)OCC(C)(C)C2 [Example A100] | 7.00 to 8.00 | 7.00 to 8.00 | 7.00 to 8.00 | 7.00 to 8.00 | 6.00 to 7.00 | 7.00 to 8.00 | 7.00 to 8.00 | 7.00 to 8.00 | 5.00 to 6.00 | 6.00 to 7.00 | – | – | – | – | – | – | – | – | – | – |
| CCn1c(-c2cnccc2COC)c2c3cc(ccc31)-c1cc(O)cc(c1)C[C@H](NC(=O)[C@H](C(C)C)N(C)C(=O)OC1CN(C)C1)C(=O)N1CCC[C@H](N1)C(=O)OCC(C)(C)C2 [Example A101] | 6.00 to 7.00 | 7.00 to 8.00 | 6.00 to 7.00 | 6.00 to 7.00 | 5.00 to 6.00 | 6.00 to 7.00 | 6.00 to 7.00 | 6.00 to 7.00 | 5.00 to 6.00 | 5.00 to 6.00 | – | – | – | – | – | – | – | – | – | – |
| CCn1c(-c2cccnc2[C@H](C)OC)c2c3cc(ccc31)-c1cc(O)cc(c1)C[C@H](NC(=O)[C@H](C(C)C)N(C)C(=O)[C@H]1CCN(CCO)C1)C(=O)N1CCC[C@H](N1)C(=O)OCC(C)(C)C2 [Example A111] | 7.00 to 8.00 | 7.00 to 8.00 | 6.00 to 7.00 | 7.00 to 8.00 | 5.00 to 6.00 | 7.00 to 8.00 | 7.00 to 8.00 | 7.00 to 8.00 | 5.00 to 6.00 | 5.00 to 6.00 | – | – | – | – | – | – | – | – | – | – |
